{"source": "ChEMBL document CHEMBL1201862", "about": "“PubChem BioAssay data set” (2004)", "test_in_all_cases": "NCI anticancer screen, dose series, 48 h", "key": {"T47D": {"system": "T47D"}, "MDA-MB-435": {"system": "MDA-MB-435"}, "BT-549": {"system": "BT-549"}, "HL-60": {"system": "HL-60"}, "CCRF-CEM": {"system": "CCRF-CEM"}, "COLO 205": {"system": "COLO 205"}, "Hs-578T": {"system": "Hs-578T"}, "HOP-92": {"system": "HOP-92"}, "SK-MEL-28": {"system": "SK-MEL-28"}, "HT-29": {"system": "HT-29"}, "MDA-MB-231": {"system": "MDA-MB-231"}, "DU-145": {"system": "DU-145"}, "NCI-H460": {"system": "NCI-H460"}, "CAKI-1": {"system": "CAKI-1"}, "RXF 393": {"system": "RXF 393"}, "NCI-H522": {"system": "NCI-H522"}, "NCI-H23": {"system": "NCI-H23"}, "HCT-116": {"system": "HCT-116"}, "RPMI-8226": {"system": "RPMI-8226"}, "HCT-15": {"system": "HCT-15"}, "SNB-19": {"system": "SNB-19"}, "UACC-257": {"system": "UACC-257"}, "LOX IMVI": {"system": "LOX IMVI"}, "A549": {"system": "A549"}, "OVCAR-3": {"system": "OVCAR-3"}, "OVCAR-4": {"system": "OVCAR-4"}, "PC-3": {"system": "PC-3"}, "NCI-H226": {"system": "NCI-H226"}, "OVCAR-5": {"system": "OVCAR-5"}, "SF-268": {"system": "SF-268"}, "MDA-N": {"system": "MDA-N"}, "786-0": {"system": "786-0"}, "SK-OV-3": {"system": "SK-OV-3"}, "OVCAR-8": {"system": "OVCAR-8"}, "M14": {"system": "M14"}, "SNB-75": {"system": "SNB-75"}, "SK-MEL-2": {"system": "SK-MEL-2"}, "KM12": {"system": "KM12"}, "SF-539": {"system": "SF-539"}, "UO-31": {"system": "UO-31"}, "Malme-3M": {"system": "Malme-3M"}, "IGROV-1": {"system": "IGROV-1"}, "MOLT-4": {"system": "MOLT-4"}, "HOP-62": {"system": "HOP-62"}, "NCI/ADR-RES": {"system": "NCI/ADR-RES"}, "SK-MEL-5": {"system": "SK-MEL-5"}, "TK-10": {"system": "TK-10"}, "SW-620": {"system": "SW-620"}, "U-251": {"system": "U-251"}, "SR": {"system": "SR"}, "SN12C": {"system": "SN12C"}, "HCC 2998": {"system": "HCC 2998"}, "MCF7": {"system": "MCF7"}, "EKVX": {"system": "EKVX"}, "K562": {"system": "K562"}, "UACC-62": {"system": "UACC-62"}, "SF-295": {"system": "SF-295"}, "ACHN": {"system": "ACHN"}}, "note": "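Protocol summary: plate cells (96-well), add compound at 5 concentrations, incubate 48 h, interpolate endpoints linearly. GI50 = concentration required for 50% inhibition of growth.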 Active and inactive are the calls of the source. Cut-off read from the data, not from the text of the source: active = GI50 up to about 1.1 µM and inactive = higher."}
{"smiles": "O=S(=O)(Nc1nc2ccccc2nc1N1CCCCCC1)c1ccccc1", "values": [{"measurement": "GI50", "setting": "T47D", "result": "> 100 µM (inactive)"}, {"measurement": "GI50", "setting": "MDA-MB-435", "result": "23 µM (inactive)"}, {"measurement": "GI50", "setting": "BT-549", "result": "19 µM (inactive)"}, {"measurement": "GI50", "setting": "HL-60", "result": "23.2 µM (inactive)"}, {"measurement": "GI50", "setting": "CCRF-CEM", "result": "34.5 µM (inactive)"}, {"measurement": "GI50", "setting": "COLO 205", "result": "> 100 µM (inactive)"}, {"measurement": "GI50", "setting": "Hs-578T", "result": "17.5 µM (inactive)"}, {"measurement": "GI50", "setting": "HOP-92", "result": "7.8 µM (inactive)"}, {"measurement": "GI50", "setting": "SK-MEL-28", "result": "28.2 µM (inactive)"}, {"measurement": "GI50", "setting": "HT-29", "result": "27.6 µM (inactive)"}, {"measurement": "GI50", "setting": "MDA-MB-231", "result": "> 100 µM (inactive)"}, {"measurement": "GI50", "setting": "DU-145", "result": "> 100 µM (inactive)"}, {"measurement": "GI50", "setting": "NCI-H460", "result": "15.7 µM (inactive)"}, {"measurement": "GI50", "setting": "CAKI-1", "result": "> 100 µM (inactive)"}, {"measurement": "GI50", "setting": "RXF 393", "result": "19.1 µM (inactive)"}, {"measurement": "GI50", "setting": "NCI-H522", "result": "19.1 µM (inactive)"}, {"measurement": "GI50", "setting": "NCI-H23", "result": "19.1 µM (inactive)"}, {"measurement": "GI50", "setting": "HCT-116", "result": "> 100 µM (inactive)"}, {"measurement": "GI50", "setting": "RPMI-8226", "result": "48.2 µM (inactive)"}, {"measurement": "GI50", "setting": "HCT-15", "result": 17.2, "unit": "µM"}, {"measurement": "GI50", "setting": "SNB-19", "result": "28.2 µM (inactive)"}, {"measurement": "GI50", "setting": "UACC-257", "result": "24.5 µM (inactive)"}, {"measurement": "GI50", "setting": "LOX IMVI", "result": "> 100 µM (inactive)"}, {"measurement": "GI50", "setting": "A549", "result": "24.7 µM (inactive)"}, {"measurement": "GI50", "setting": "OVCAR-3", "result": "17.1 µM (inactive)"}, {"measurement": "GI50", "setting": "OVCAR-4", "result": "4.05 µM (inactive)"}, {"measurement": "GI50", "setting": "PC-3", "result": "19.4 µM (inactive)"}, {"measurement": "GI50", "setting": "NCI-H226", "result": "27.9 µM (inactive)"}, {"measurement": "GI50", "setting": "OVCAR-5", "result": "57.3 µM (inactive)"}, {"measurement": "GI50", "setting": "SF-268", "result": "37.7 µM (inactive)"}, {"measurement": "GI50", "setting": "MDA-N", "result": "> 100 µM (inactive)"}, {"measurement": "GI50", "setting": "786-0", "result": "> 100 µM (inactive)"}, {"measurement": "GI50", "setting": "SK-OV-3", "result": "28.2 µM (inactive)"}, {"measurement": "GI50", "setting": "OVCAR-8", "result": "29 µM (inactive)"}, {"measurement": "GI50", "setting": "M14", "result": "22.5 µM (inactive)"}, {"measurement": "GI50", "setting": "SNB-75", "result": "21 µM (inactive)"}, {"measurement": "GI50", "setting": "SK-MEL-2", "result": "16.3 µM (inactive)"}, {"measurement": "GI50", "setting": "KM12", "result": "15.8 µM (inactive)"}, {"measurement": "GI50", "setting": "SF-539", "result": "29.2 µM (inactive)"}, {"measurement": "GI50", "setting": "UO-31", "result": "12.4 µM (inactive)"}, {"measurement": "GI50", "setting": "Malme-3M", "result": "25.4 µM (inactive)"}, {"measurement": "GI50", "setting": "IGROV-1", "result": "20.8 µM (inactive)"}, {"measurement": "GI50", "setting": "MOLT-4", "result": "16.4 µM (inactive)"}, {"measurement": "GI50", "setting": "HOP-62", "result": "23 µM (inactive)"}, {"measurement": "GI50", "setting": "NCI/ADR-RES", "result": "25.8 µM (inactive)"}, {"measurement": "GI50", "setting": "SK-MEL-5", "result": "14.3 µM (inactive)"}, {"measurement": "GI50", "setting": "TK-10", "result": "16.8 µM (inactive)"}, {"measurement": "GI50", "setting": "SW-620", "result": "22.7 µM (inactive)"}, {"measurement": "GI50", "setting": "U-251", "result": "18.6 µM (inactive)"}, {"measurement": "GI50", "setting": "SR", "result": "25.3 µM (inactive)"}, {"measurement": "GI50", "setting": "SN12C", "result": "> 100 µM (inactive)"}, {"measurement": "GI50", "setting": "HCC 2998", "result": "11.8 µM (inactive)"}, {"measurement": "GI50", "setting": "MCF7", "result": "28.6 µM (inactive)"}, {"measurement": "GI50", "setting": "EKVX", "result": "24.5 µM (inactive)"}, {"measurement": "GI50", "setting": "K562", "result": "> 100 µM (inactive)"}, {"measurement": "GI50", "setting": "UACC-62", "result": "18.4 µM (inactive)"}, {"measurement": "GI50", "setting": "SF-295", "result": "24.1 µM (inactive)"}, {"measurement": "GI50", "setting": "ACHN", "result": "21.1 µM (inactive)"}]}
